The structures appear in SMILES notation. A value given as a limit tells only on which side of the number the result lay.

One may read the EC50 as the midpoint of the concentration-response curve.

T1 sequence (Q96P20 whole entry): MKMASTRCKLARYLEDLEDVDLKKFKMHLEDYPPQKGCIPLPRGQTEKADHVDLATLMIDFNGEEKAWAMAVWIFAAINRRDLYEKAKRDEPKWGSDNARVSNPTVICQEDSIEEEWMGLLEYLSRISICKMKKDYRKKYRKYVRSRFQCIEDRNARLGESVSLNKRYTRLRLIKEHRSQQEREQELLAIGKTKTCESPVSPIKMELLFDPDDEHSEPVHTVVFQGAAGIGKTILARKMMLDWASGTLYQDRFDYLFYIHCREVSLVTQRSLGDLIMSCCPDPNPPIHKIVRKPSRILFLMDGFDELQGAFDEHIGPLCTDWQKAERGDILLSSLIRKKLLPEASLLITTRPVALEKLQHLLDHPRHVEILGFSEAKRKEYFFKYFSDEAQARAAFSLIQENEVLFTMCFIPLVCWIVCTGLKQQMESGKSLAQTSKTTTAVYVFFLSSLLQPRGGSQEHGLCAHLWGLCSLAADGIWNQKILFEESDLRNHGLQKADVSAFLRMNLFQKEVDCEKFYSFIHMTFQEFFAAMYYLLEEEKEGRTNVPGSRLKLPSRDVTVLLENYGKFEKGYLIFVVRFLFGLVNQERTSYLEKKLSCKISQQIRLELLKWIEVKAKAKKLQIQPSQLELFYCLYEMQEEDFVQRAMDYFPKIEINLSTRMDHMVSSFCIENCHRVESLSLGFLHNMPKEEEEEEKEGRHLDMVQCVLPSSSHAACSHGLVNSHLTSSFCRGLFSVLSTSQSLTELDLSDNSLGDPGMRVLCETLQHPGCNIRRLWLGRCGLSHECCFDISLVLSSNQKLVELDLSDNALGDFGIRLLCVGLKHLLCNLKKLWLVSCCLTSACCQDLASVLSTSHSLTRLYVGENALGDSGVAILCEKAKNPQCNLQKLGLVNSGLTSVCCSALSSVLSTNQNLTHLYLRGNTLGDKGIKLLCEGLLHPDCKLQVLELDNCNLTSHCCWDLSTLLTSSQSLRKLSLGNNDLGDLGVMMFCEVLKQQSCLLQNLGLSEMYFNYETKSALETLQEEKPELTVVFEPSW

The experiment has as its target T1, NLRP3 inflammasomes (Homo sapiens, UniProt Q96P20).
T1 construct: endogenous in cells; host or cells: THP-1 human monocytic cells, PMA-differentiated, LPS-primed, nigericin-stimulated
Nature of the experiment: THP-1 pyroptosis test (cell pyroptosis test). In kind it is cell-based. To be noted: THP-1 cells differentiated with PMA, LPS stimulation, 10 μM nigericin, drug 0.001-10 μM, MTT absorbance 562 nm. As to the method:
In vitro activity screening was performed on small molecule compounds targeting inhibition on NLRP3 inflammasomes using THP-1 human monocytic cells (THP-1). THP-1 can be induced to differentiate into macrophages by phorbol ester (PMA), and the macrophages M1 can be induced to polarize by lipopolysaccharide (LPS) to release cytokines such as TNF-α, and IL-6, so as to establish a typical inflammatory model.
THP-1 cells in a logarithmic growth phase were collected to prepare a 1×10^6 cells/mL cell suspension, PMA was added to achieve a final concentration of 300 ng/mL in the cell suspension, then 1×10^5 cells were inoculated to each well of a 96-well plate, and the cells were cultured in a 37° C., 5% CO2 cell incubator for 24 hours and induced to differentiate into macrophages.
The next day, LPS was added to stimulate and induce the cells to produce an inflammatory model. […] In the 200 μL system of the 96-well plate, the final concentration of each drug was 0.001-10 μM, and the final concentration of the nigericin was 10 μM.
Cell apoptosis protection rate=[(X−C0)/(C−C0)]×100%
wherein, C, C0 and X represent average absorbance values of the normal cell group, the blank control group, and the drug treatment group, respectively. Finally, cell survival curves were fitted by Graphpad Prism 5.0 software and EC50 values of the compounds to be tested in inhibiting pyroptosis caused by NLRP3 inflammasomes were calculated.
Consider `CN1CCC[C@@H](Nc2nnc(-c3ccc(C(F)(F)F)cc3O)c3c2ncn3C)C1` [Compound 37, (R)-2-(1-methyl-4-((1-methylpiperidin-3-yl)amino)-1H-imidazo[4,5-d]pyridazin-7-yl)-5-(trifluoromethyl)phenol], for which the EC50 was below 20 nM. `Cc1ccc(-c2nnc(N[C@@H]3CCCN(C)C3)c3ccccc23)c(O)c1` [Compound 40, (R)-5-methyl-2-(4-((1-methylpiperidin-3-yl)amino)phthalazin-1-yl)phenol] showed an EC50 below 20 nM. The same measure for `CN1CCC[C@@H](Nc2nnc(-c3ccc(OC(F)(F)F)cc3O)c3ccccc23)C1` [Compound 41, (R)-2-(4-((1-methylpiperidin-3-yl)amino)phthalazin-1-yl)-5-(trifluoromethoxy)phenol]: below 20 nM. Turning to `CN1CCC[C@@H](Nc2nnc(-c3ccc(C(F)(F)F)cc3O)c3ccc(P(C)(C)=O)cc23)C1` [Compound 43, (R)-(1-(2-hydroxy-4-(trifluoromethyl)phenyl)-4-((1-methylpiperidin-3-yl)amino)phthalazin-6-yl)dimethylphosphine oxide], the EC50 fell in the range of 500 to 1000 nM.

In turn, `CN1CCC[C@@H](Nc2nnc(-c3ccc(F)cc3O)c3ccccc23)C1` [Compound 44, (R)-5-fluoro-2-(4-((1-methylpiperidin-3-yl)amino)phthalazin-1-yl)phenol] returned an EC50 of 20 to 100 nM. The result for `CN1CCC[C@@H](Nc2nnc(-c3ccc(C(F)(F)F)cc3O)c3cc(P(C)(C)=O)ccc23)C1` [Compound 45, (R)-(4-(2-hydroxy-4-(trifluoromethyl)phenyl)-1-((1-methylpiperidin-3-yl)amino)phthalazin-6-yl)dimethylphosphine oxide] reads 500 to 1000 nM. The same measure for `CN1CCC[C@@H](Nc2nnc(-c3cc(F)ccc3O)c3ccccc23)C1` [Compound 46, (R)-4-fluoro-2-(4-((1-methylpiperidin-3-yl)amino)phthalazin-1-yl)phenol]: 20 to 100 nM; for `Cc1ccc(O)c(-c2nnc(N[C@@H]3CCCN(C)C3)c3ccccc23)c1` [Compound 47, (R)-4-methyl-2-(4-((1-methylpiperidin-3-yl)amino)phthalazin-1-yl)phenol]: above 1000 nM. In turn, `Cc1cnc2c(N[C@@H]3CCCN(C)C3)nnc(-c3ccc(C(F)(F)F)cc3O)c2c1` [Compound 48, 2-(3-methyl-8-{[(3R)-1-methylpiperidin-3-yl]amino}pyridino[2,3-d]pyridazin-5-yl)-5-(trifluoromethyl)phenol] gave an EC50 below 20 nM. Consider `Cc1cnc2c(-c3ccc(C(F)(F)F)cc3O)nnc(N[C@@H]3CCCN(C)C3)c2c1` [Compound 49, 2-(3-methyl-5-{[(3R)-1-methylpiperidin-3-yl]amino}pyridino[2,3-d]pyridazin-8-yl)-5-(trifluoromethyl)phenol], for which the EC50 was below 20 nM. In turn, `CCc1cnc2c(N[C@@H]3CCCN(C)C3)nnc(-c3ccc(C(F)(F)F)cc3O)c2c1` [Compound 50, (R)-2-(3-ethyl-8-((1-methylpiperidin-3-yl)amino)pyridino[2,3-d]pyridazin-5-yl)-5-(trifluoromethyl)phenol] displayed an EC50 below 20 nM. The result for `CCc1cnc2c(-c3ccc(C(F)(F)F)cc3O)nnc(N[C@@H]3CCCN(C)C3)c2c1` [Compound 51, (R)-2-(3-ethyl-5-((1-methylpiperidin-3-yl)amino)pyridino[2,3-d]pyridazin-8-yl)-5-(trifluoromethyl)phenol] reads 20 to 100 nM; that for `Cc1ccc2c(-c3ccc(C(F)(F)F)cc3O)nnc(N[C@@H]3CCCN(C)C3)c2n1` [Compound 52, (R)-2-(2-methyl-8-((1-methylpiperidin-3-yl)amino)pyridino[2,3-d]pyridazin-5-yl)-5-(trifluoromethyl)phenol], below 20 nM; that for `Cc1ccc2c(N[C@@H]3CCCN(C)C3)nnc(-c3ccc(C(F)(F)F)cc3O)c2n1` [Compound 53, (R)-2-(2-methyl-5-((1-methylpiperidin-3-yl)amino)pyridino[2,3-d]pyridazin-8-yl)-5-(trifluoromethyl)phenol], 100 to 500 nM.

For the compound `CN1CCC[C@@H](Nc2nnc(-c3ccc(C(F)(F)F)cc3O)c3cscc23)C1` [Compound 54, (R)-2-(4-((1-methylpiperidin-3-yl)amino)thieno[3,4-d]pyridazin-1-yl)-5-(trifluoromethyl)phenol], the EC50 is below 20 nM.

In turn, `Cc1cnc2c(N[C@@H]3CCCN(C)C3)nnc(-c3ccc(F)cc3O)c2c1` [Compound 55, (R)-5-fluoro-2-(3-methyl-8-((1-methylpiperidin-3-yl)amino)pyridino[2,3-d]pyridazn-5-yl)phenol] had an EC50 below 20 nM.

Compound `Cc1cnc2c(N[C@@H]3CCCN(C)C3)nnc(-c3ccccc3O)c2c1` [Compound 56, (R)-2-(3-methyl-8-((1-methylpiperidin-3-yl)amino)pyridino[2,3-d]pyridazin-5-yl)phenol] gave an EC50 below 20 nM. In turn, `Cc1nc2c(N[C@@H]3CCCN(C)C3)nnc(-c3ccc(C(F)(F)F)cc3O)c2n1C` [Compound 57] yielded an EC50 below 20 nM. Take `CN1CCC[C@@H](Nc2nnc(-c3ccc(C(F)(F)F)cc3O)c3c2nc(C(F)(F)F)n3C)C1` [Compound 58]: the EC50 is below 20 nM. Regarding `CN1CCC[C@@H](Nc2nnc(-c3ccc(C(F)(F)F)cc3O)c3c2nc(C2CC2)n3C)C1` [Compound 59], the EC50 is below 20 nM. The result for `Cc1ccc(-c2nnc(N[C@@H]3CCCN(C)C3)c3ncc(C)cc23)c(O)c1` [Compound 60, 5-methyl-2-(3-methyl-8-{[(3R)-1-methylpiperidin-3-yl]amino}pyridino[2,3-d]pyridazin-5-yl)phenol] reads below 20 nM; that for `Cc1cnc2c(N[C@@H]3CCCN(C)C3)nnc(-c3ccc(OC(F)(F)F)cc3O)c2c1` [Compound 61, 2-(3-methyl-8-{[(3R)-1-methylpiperidin-3-yl]amino}pyridino[2,3-d]pyridazin-5-yl)-5-(trifluoromethoxy)phenol], below 20 nM. Consider `CN1CCC[C@@H](Nc2nnc(-c3ccc(C(F)(F)F)cc3O)c3cnn(C)c23)C1` [Compound 62, (R)-2-(1-methyl-7-((1-methylpiperidin-3-yl)amino)-1H-pyrazolo[3,4-d]pyridazin-4-yl)-5-(trifluoromethyl)phenol], for which the EC50 was below 20 nM. In turn, `CN1CCC[C@@H](Nc2nnc(-c3ccc(C(F)(F)F)cc3O)c3c2cnn3C)C1` [Compound 63, (R)-2-(1-methyl-4-((1-methylpiperidin-3-yl)amino)-1H-pyrazolo[3,4-d]pyridazin-7-yl)-5-(trifluoromethyl)phenol] came in with an EC50 below 20 nM. The same measure for `Cc1ccc(-c2nnc(N[C@@H]3CCCN(C)C3)c3c2cnn3C)c(O)c1` [Compound 64]: below 20 nM; for `Cc1ccc(-c2nnc(N[C@@H]3CCCN(C)C3)c3cnn(C)c23)c(O)c1` [Compound 65]: below 20 nM; for `CN1C[C@H](Nc2nnc(-c3ccc(C(F)(F)F)cc3O)c3c2cnn3C)CCC1=O` [Compound 66]: 100 to 500 nM. The result for `CN1CC(Nc2nnc(-c3ccc(C(F)(F)F)cc3O)c3cnn(C)c23)CCC1=O` (stereo not shown) [Compound 67] reads 100 to 500 nM; that for `CN1CCC(Nc2nnc(-c3ccc(C(F)(F)F)cc3O)c3c2cnn3C)CC1` [Compound 68], 500 to 1000 nM; that for `CN1CCC(Nc2nnc(-c3ccc(F)cc3O)c3cnn(C)c23)CC1` [Compound 69], above 1000 nM. The same measure for `CN1CCC(Nc2nnc(-c3ccc(F)cc3O)c3c2cnn3C)CC1` [Compound 70]: above 1000 nM.

For the origin of these results see patent publication US20240391881A1, “PHARMACEUTICAL USE AND PREPARATION METHOD FOR SUBSTITUTED HETEROARYL PHTHALAZINE DERIVATIVE” (ORIGIANT PHARMACEUTICAL CO., LTD., priority 2021, published 2024).
